Several values for one entry are separate records, joined by “and”; a condition that tells them apart may be missing. Identical values can stand only once.
How the values were obtained:
[1] = The background fluorescence was measured in TE buffer in the presence of calf thymus DNA (4 ug/mL) at a molar ratio of 4000:1 (Compound:DNA)
[2] = The background fluorescence was measured in TE buffer in the presence of calf thymus DNA (4 ug/mL) at a molar ratio of 1000:1 (Compound:DNA)
[3] = The background fluorescence was measured in TE buffer in the presence of calf thymus DNA (4 ug/mL) at a molar ratio of 8000:1 (Compound:DNA)
[4] = The background fluorescence was measured in TE buffer in the presence of calf thymus DNA (4 ug/mL) at a molar ratio of 2000:1 (Compound:DNA)
[5] = Enhancement in fluorescence intensity was calculated as fluorescence intensity in presence of DNA/fluorescence intensity in absence of DNA
[6] = The background fluorescence was measured in TE buffer in the absence of DNA

Row | Fluorescence intensity [1] | Fluorescence intensity [2] | Fluorescence intensity [3] | Fluorescence intensity [4] | Enhancement [5] | Fluorescence intensity [6] | SMILES
1 | 236 | 179 | 295 | 214 |  |  | N=C(N)c1ccc(-c2cc3ccc(C(=N)N)cc3[nH]2)cc1
2 | 94.8 |  | 86.7 | 75 | 3.4 and 6 and 7.7 | 25.3 and 15.7 and 9.8 | N=C(N)c1ccc(-c2[nH]c3cc(C(=N)N)ccc3c2Cc2cc([N+](=O)[O-])ccc2O)cc1

Source: ChEMBL document CHEMBL1136479, “DAPI derivative: a fluorescent DNA dye that can be covalently attached to biomolecules” (Bioorg Med Chem Lett, 2003)
